The values that follow come from ChEMBL document CHEMBL2384999, “Discovery of a potent, dual serotonin and norepinephrine reuptake inhibitor” (ACS Med Chem Lett, 2013).

Broadly, the Ki is a measure of affinity in units of concentration, obtained from inhibition or displacement. A lower Ki goes with tighter binding. Usually IC50 stands for the concentration needed to halve the response being measured. The low end stands for greater potency in that assay, the high end for weaker potency in that assay. Broadly, the Tmax is the time from dosing to the highest level. By bioavailability is commonly meant the share of a dose that reaches the circulation, judged against a reference dose that is usually intravenous. A lower bioavailability goes with little systemic uptake. For orientation: AUC(0-inf) means the area under the concentration-time curve extrapolated to infinity. Low values mean low exposure, high ones high exposure. A word on the Cmax: it is the peak of the concentration-time curve. The term inhibition denotes the change of the read-out against control, counted positive when it falls. As usually defined, the half-life is the time in which the quantity being followed falls by half. Low values mean rapid decline, high ones slow decline. As a reminder, the clearance is a measure of how efficiently the substance is removed, as volume per time. Read a low clearance as inefficient removal.

Active and inactive are the calls of the source. The rule behind the calls is not given here.

Data set [1] has as its target Sodium-dependent serotonin transporter (Rattus norvegicus, UniProt P31652).
Description: Displacement of [3H]-citalopram from Sprague-Dawley rat brain SERT after 1 hr
Data set [2] deals with T1, Sodium-dependent serotonin transporter (Homo sapiens, UniProt P31645). Nature of the data set: biochemical. The format is cell-based, HEK293.
Target sequence in this assay (P31645 whole entry): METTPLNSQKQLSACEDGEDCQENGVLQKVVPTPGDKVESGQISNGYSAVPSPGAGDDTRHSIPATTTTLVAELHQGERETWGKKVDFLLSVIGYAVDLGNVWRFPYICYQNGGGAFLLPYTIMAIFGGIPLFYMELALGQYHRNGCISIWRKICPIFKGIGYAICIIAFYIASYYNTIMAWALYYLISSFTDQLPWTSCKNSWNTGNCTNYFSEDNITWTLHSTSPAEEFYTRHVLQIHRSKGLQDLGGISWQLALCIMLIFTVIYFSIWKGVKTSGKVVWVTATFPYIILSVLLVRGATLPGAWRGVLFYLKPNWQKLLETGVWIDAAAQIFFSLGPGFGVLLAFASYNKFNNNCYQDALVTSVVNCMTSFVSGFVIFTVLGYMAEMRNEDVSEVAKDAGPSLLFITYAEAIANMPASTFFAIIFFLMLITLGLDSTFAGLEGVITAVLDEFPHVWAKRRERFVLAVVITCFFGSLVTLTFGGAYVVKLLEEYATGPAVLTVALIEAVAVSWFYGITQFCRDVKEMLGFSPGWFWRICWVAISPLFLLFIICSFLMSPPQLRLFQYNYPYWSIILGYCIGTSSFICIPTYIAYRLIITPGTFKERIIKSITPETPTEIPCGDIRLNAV
Description: Displacement of [3H]citalopram from human SERT transfected in HEK293 cells after 3 hrs by Wallac counting analysis
Data set [3] can be described thus: Metabolic stability in dog liver microsomes after 30 mins by LC-ESI/MS analysis. The format is ADME, Canis lupus familiaris, Microsome. The following applies: read-out: Stability. For orientation: Liver microsomes are vesicles of endoplasmic reticulum, rich in cytochrome P450 enzymes.
Data set [4] in a line: Tmax in rat at 1 mg/kg, po. The format is ADME, organism-based. Also on record: dose 1 mg/kg, route oral. The following applies: in vivo.
A further data set has as its target Cytochrome P450 2D6 (Homo sapiens, UniProt P10635). Briefly: Inhibition of CYP2D6 (unknown origin). The format is ADME.
For data set [5], the species on record is Rattus norvegicus. Nature of the data set: animal or person. The following applies: po.
Data set [6] can be described thus: Oral bioavailability in dog at 1 mg/kg. The format is ADME, organism-based, Canis lupus familiaris. The conditions noted are these: in vivo.
The nature of data set [7]: AUC (0 to infinity) in rat at 1 mg/kg, po. Also on record: time infinity, dose 1 mg/kg, route oral. The format is ADME, organism-based. The conditions noted are these: plasma.
The next data set deals with Cytochrome P450 2C9 (Homo sapiens, UniProt P11712). Nature of the data set: Inhibition of CYP2C9 (unknown origin). The format is ADME.
Sequence of Cytochrome P450 2C9 (P11712 whole entry): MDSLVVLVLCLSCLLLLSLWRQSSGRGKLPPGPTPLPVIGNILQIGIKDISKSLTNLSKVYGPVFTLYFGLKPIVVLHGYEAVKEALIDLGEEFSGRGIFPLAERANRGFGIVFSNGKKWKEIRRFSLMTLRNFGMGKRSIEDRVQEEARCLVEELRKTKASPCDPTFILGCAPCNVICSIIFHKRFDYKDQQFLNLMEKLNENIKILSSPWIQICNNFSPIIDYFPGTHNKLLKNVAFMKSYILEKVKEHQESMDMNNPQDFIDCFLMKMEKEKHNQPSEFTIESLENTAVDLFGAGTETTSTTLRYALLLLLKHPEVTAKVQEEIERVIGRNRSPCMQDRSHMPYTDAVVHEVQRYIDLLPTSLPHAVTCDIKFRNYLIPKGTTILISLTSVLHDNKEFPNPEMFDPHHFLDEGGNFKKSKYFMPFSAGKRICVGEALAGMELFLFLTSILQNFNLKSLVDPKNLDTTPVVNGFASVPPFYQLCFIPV
The subject of another data set is Brain. Briefly: Drug uptake in Sprague-Dawley rat brain at 10 mg/kg, po. The conditions noted are these: in vivo, read-out: Drug uptake. Set-up: dose 10 mg/kg, route oral. The format is ADME, organism-based.
The nature of data set [8]: Metabolic stability in human liver microsomes after 30 mins by LC-ESI/MS analysis. The format is ADME, Microsome. The following applies: read-out: Stability.
Data set [9] can be described thus: Volume of distribution at steady state in dog at 1 mg/kg, iv. The format is ADME, organism-based, Canis lupus familiaris. Also on record: dose 1 mg/kg, route intravenous. The following applies: in vivo, read-out: Vdss.
For another data set, the target named is Cytochrome P450 3A4 (Homo sapiens, UniProt P08684). Nature of the data set: Inhibition of CYP3A4 (unknown origin). The format is ADME.
Sequence of Cytochrome P450 3A4 (P08684 whole entry): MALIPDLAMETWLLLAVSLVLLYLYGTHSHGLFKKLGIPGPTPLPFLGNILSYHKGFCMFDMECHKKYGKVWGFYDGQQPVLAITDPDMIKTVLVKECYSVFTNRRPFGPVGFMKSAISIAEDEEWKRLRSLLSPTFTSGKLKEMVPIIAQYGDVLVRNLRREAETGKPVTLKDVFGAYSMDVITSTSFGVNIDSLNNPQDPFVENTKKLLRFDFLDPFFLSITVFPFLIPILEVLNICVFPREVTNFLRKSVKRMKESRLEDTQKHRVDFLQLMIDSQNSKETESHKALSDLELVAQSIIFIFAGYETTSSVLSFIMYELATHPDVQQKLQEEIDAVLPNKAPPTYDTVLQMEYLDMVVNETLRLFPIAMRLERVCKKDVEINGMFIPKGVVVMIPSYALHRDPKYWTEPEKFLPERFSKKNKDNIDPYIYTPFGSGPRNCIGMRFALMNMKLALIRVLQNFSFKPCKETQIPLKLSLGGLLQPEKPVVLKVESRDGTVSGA
Data set [10] in a line: Cmax in rat at 1 mg/kg, po. The conditions noted are these: in vivo. The format is ADME, organism-based. Set-up: dose 1 mg/kg, route oral.
For another data set, the system named is Plasma. Briefly: Drug uptake in Sprague-Dawley rat plasma at 10 mg/kg, po. The format is ADME, organism-based. Set-up: dose 10 mg/kg, route oral. The following applies: in vivo.
A short description of data set [11]: Ratio of drug uptake in brain to plasma in Sprague-Dawley rat at 10 mg/kg, po. The format is ADME, organism-based. Set-up: dose 10 mg/kg, route oral. The following applies: read-out: BPR.
The next data set addresses T2, Cytochrome P450 1A2 (Homo sapiens, UniProt P05177).
T2 sequence (P05177 whole entry): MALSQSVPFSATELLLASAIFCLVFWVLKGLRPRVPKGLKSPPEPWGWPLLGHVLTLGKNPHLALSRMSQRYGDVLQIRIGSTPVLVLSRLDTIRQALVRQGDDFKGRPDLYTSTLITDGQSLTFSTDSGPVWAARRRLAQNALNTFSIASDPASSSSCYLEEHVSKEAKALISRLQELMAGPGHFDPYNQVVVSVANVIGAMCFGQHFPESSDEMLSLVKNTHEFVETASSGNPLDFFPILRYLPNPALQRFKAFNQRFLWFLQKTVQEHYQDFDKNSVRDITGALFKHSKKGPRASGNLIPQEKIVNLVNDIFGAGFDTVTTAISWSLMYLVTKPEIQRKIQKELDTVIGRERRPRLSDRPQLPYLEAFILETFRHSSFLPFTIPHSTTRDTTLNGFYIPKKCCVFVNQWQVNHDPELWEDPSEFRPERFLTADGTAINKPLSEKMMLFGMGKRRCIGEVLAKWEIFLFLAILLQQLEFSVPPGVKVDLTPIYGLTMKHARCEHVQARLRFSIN
Nature of the data set: Inhibition of CYP1A2 (unknown origin). The format is ADME.

A further data set has as its target CYP2C9 (Homo sapiens, UniProt P11712). Briefly: Inhibition of CYP2C9 (unknown origin) at 10 uM. The format is ADME.
Data set [12] in a line: AUC (0 to infinity) in rat at 1 mg/kg, iv. The format is ADME, organism-based. Set-up: time infinity, dose 1 mg/kg, route intravenous. The conditions noted are these: plasma.
Data set [13] can be described thus: Half life in rat at 1 mg/kg, iv. The format is ADME, organism-based. The following applies: in vivo. Set-up: dose 1 mg/kg, route intravenous.
Data set [14] can be described thus: Volume of distribution at steady state in rat at 1 mg/kg, iv. The format is ADME, organism-based. Set-up: dose 1 mg/kg, route intravenous. The conditions noted are these: in vivo, read-out: Vdss.
Data set [15] can be described thus: AUC (0 to infinity) in dog at 1 mg/kg, iv. The format is ADME, organism-based, Canis lupus familiaris. Set-up: dose 1 mg/kg, route intravenous, time infinity. The following applies: plasma.
Data set [16] relates to Rattus norvegicus. Nature of the data set: Neurotoxicity in Sprague-Dawley rat at 100 mg/kg, po by rotorod test. The format is toxicity, organism-based. Set-up: dose 100 mg/kg, route oral. The conditions noted are these: in vivo. A general note: Falling from the rotarod earlier than controls is read as motor impairment.
A short description of data set [17]: Oral bioavailability in rat at 1 mg/kg. The format is ADME, organism-based. The following applies: in vivo.
Data set [18] is described as follows: Serum protein binding in human. The format is ADME, cell-free. The conditions noted are these: read-out: PB (converted).
Data set [19] in a line: Cmax in dog at 1 mg/kg, po. The format is ADME, organism-based, Canis lupus familiaris. Set-up: dose 1 mg/kg, route oral. The following applies: in vivo.
Data set [20] can be described thus: Metabolic stability in rat liver microsomes after 30 mins by LC-ESI/MS analysis. The following applies: read-out: Stability. The format is ADME, Microsome.
Data set [21] is described as follows: Clearance in dog at 1 mg/kg, iv. The format is ADME, organism-based, Canis lupus familiaris. Also on record: dose 1 mg/kg, route intravenous. The following applies: in vivo.
Data set [22] in a line: Clearance in rat at 1 mg/kg, iv. The format is ADME, organism-based. Set-up: dose 1 mg/kg, route intravenous. The conditions noted are these: in vivo.
The species named for data set [23] is Rattus norvegicus. Briefly: animal or person. The following applies: Sprague-Dawley, po, 2 h.
Description: (§1) In vivo SERT receptor occupancy in po dosed Sprague-Dawley rat brain cortex after 2 hrs in presence of DASB
The target in a further data set is CYP3A4 (Homo sapiens, UniProt P08684). Nature of the data set: Inhibition of CYP3A4 (unknown origin) at 10 uM. The format is ADME.
Sequence of CYP3A4 (P08684 whole entry): as the sequence (P08684 whole entry) above
Data set [24] in a line: AUC (0 to infinity) in dog at 1 mg/kg, po. The format is ADME, organism-based, Canis lupus familiaris. Set-up: time infinity, dose 1 mg/kg, route oral. The conditions noted are these: plasma.
Data set [25] in a line: Tmax in dog at 1 mg/kg, po. Also on record: dose 1 mg/kg, route oral. The format is ADME, organism-based, Canis lupus familiaris. The conditions noted are these: in vivo.
Another data set deals with CYP2D6 (Homo sapiens, UniProt P10635). Briefly: Inhibition of CYP2D6 (unknown origin) at 10 uM. The format is ADME.
Sequence of CYP2D6 (P10635 whole entry): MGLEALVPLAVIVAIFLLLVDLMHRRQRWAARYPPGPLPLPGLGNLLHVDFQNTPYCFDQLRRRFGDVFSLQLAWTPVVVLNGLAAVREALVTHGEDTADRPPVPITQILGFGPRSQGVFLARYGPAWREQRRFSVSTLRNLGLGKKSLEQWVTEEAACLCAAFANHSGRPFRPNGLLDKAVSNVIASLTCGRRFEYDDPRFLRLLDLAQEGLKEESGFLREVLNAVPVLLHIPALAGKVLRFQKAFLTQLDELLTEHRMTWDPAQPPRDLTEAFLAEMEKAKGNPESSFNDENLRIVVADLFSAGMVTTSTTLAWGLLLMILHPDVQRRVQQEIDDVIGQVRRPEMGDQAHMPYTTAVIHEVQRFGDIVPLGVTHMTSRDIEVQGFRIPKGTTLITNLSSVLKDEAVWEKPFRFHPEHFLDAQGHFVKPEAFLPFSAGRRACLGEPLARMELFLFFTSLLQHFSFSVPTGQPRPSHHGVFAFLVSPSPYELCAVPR
A short description of data set [26]: Half life in dog at 1 mg/kg, iv. The format is ADME, organism-based, Canis lupus familiaris. Set-up: dose 1 mg/kg, route intravenous. The conditions noted are these: in vivo.
Data set [27] concerns the target Sodium-dependent dopamine transporter (Homo sapiens, UniProt Q01959). Briefly: biochemical.
Description: Displacement of [3H]WIN35428 from human DAT transfected in HEK293 cells after 3 hrs by Wallac counting analysis
Data set [28] concerns Rattus norvegicus.
Data set [29] has as its system Rattus norvegicus. The conditions noted are these: Sprague-Dawley.
Description: as §1
Data set [30] concerns the target T1, Sodium-dependent serotonin transporter. Nature of the data set: Inhibition of human SERT transfected in HEK293 cells assessed as inhibition of [3H]serotonin uptake incubated 30 mins prior to substrate addition measured after 1 minute 50 secs. The format is cell-based.
Target sequence in this assay (P31645 whole entry, looked up): as the sequence (P31645 whole entry) above

Sequence of Sodium-dependent dopamine transporter (Q01959 whole entry): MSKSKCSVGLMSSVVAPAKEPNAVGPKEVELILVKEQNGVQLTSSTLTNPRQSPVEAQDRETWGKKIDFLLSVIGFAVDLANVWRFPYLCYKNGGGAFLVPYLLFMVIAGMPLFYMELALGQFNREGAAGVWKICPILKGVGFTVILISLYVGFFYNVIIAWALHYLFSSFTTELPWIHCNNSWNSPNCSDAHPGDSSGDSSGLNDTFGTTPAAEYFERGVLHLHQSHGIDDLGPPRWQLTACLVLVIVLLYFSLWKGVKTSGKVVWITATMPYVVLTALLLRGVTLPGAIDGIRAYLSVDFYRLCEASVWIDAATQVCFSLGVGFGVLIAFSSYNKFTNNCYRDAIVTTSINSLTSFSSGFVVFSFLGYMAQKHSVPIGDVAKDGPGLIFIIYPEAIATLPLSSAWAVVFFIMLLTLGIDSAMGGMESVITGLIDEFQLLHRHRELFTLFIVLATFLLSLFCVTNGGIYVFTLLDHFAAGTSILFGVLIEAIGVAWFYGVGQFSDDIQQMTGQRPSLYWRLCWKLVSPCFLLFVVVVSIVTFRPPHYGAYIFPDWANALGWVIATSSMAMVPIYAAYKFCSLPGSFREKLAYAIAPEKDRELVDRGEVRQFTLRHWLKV
Sequence of Sodium-dependent serotonin transporter (Rattus norvegicus, UniProt P31652) (P31652 whole entry): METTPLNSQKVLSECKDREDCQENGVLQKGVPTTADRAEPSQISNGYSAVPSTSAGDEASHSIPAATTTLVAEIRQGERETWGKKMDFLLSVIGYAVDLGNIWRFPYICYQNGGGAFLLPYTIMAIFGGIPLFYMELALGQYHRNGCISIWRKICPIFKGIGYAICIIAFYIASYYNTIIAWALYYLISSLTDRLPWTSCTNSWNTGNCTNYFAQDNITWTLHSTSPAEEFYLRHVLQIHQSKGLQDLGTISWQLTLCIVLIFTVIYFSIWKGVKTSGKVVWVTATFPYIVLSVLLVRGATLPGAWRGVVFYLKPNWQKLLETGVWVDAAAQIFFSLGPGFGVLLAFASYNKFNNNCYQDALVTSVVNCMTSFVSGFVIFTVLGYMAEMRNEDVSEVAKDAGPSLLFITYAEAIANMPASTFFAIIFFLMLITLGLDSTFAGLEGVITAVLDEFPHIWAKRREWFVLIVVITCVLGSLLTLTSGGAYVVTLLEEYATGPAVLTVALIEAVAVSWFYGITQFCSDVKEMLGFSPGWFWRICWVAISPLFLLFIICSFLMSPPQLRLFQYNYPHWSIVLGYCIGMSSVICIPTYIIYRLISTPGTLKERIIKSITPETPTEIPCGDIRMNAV
Sequence of CYP2C9 (P11712 whole entry): as the sequence (P11712 whole entry) above
Sequence of Cytochrome P450 2D6 (P10635 whole entry): as the sequence (P10635 whole entry) above

As for `COc1ccc(O[C@@H](CC(C)C)[C@H]2CCNC2)c(C)n1` [listing 1 of 2 here], the affinity in [1] corresponds to a Ki of 0.16 nM. Moreover, the IC50 was 1.9 nM in data set [2]; above 10000 nM against Cytochrome P450 2D6; above 10000 nM against Cytochrome P450 2C9; above 10000 nM against Cytochrome P450 3A4; above 10000 nM against Cytochrome P450 1A2. The remaining at 0.5 h in data set [3] amounted to 57%; in data set [8], 28%; in data set [20] it was 92%. For the same compound, the time to peak (Tmax) in [4] and in data set [25] was 1.3 h each time. The ED80 in the data set listed under Rattus norvegicus [5] was 6.8 mg/kg; in the data set filed under Rattus norvegicus [23] it was 10.6 mg/kg. Also, the figures for the bioavailability in data set [6] and in data set [17] were 47% and 31%, respectively. Also, the AUC(0-inf) in data set [7] stood at 0.251 µM·h; in data set [12], 0.6 µM·h; in [15] it was 8.09 µM·h; in data set [24], 4.13 µM·h. Further, the concentration with Brain amounted to 450 nM; with Plasma, 146 nM. Besides, the results for the Vd in data set [9] and in data set [14] were 1.8 L/kg and 7.6 L/kg, respectively. In addition, the peak concentration (Cmax) in data set [10] was 65 nM; in [19], 503 nM. Further, the Kp in [11] is 3. The inhibition at 10 µM against CYP2C9, against CYP3A4 and at CYP2D6 was below 30% in each case. Further, the half-life in data set [13] is 0.84 h; in data set [26] it was 4.6 h. In the data set with Rattus norvegicus [16], the Activity entry is “Non-toxic”. Besides, the fraction unbound in [18] was 0.43. Also, the clearance in data set [21] is 8.2 mL/min/kg; in data set [22], 120 mL/min/kg.

`CCN(CC)C(=O)C1(c2ccccc2)CC1CN` (stereo not drawn) returned a Ki in data set [1] of 27 nM.

Regarding `COc1ccc(O[C@H](CC(C)C)[C@@H]2CCNC2)c(C)n1`, the figures for the Ki in data set [2] and in [27] were 0.75 nM and above 890 nM, respectively.

Consider `COc1ccc(O[C@@H](CC(C)C)[C@H]2CCNC2)c(C)n1` [listing 2 of 2 here], for which the inhibition entry with Rattus norvegicus [28] was “Dose-dependent effect”. In addition, the Activity entry in the data set on Rattus norvegicus [29] is “Dose-dependent effect”. Also, the inhibition entry in [30] was “Active”.

Regarding `COc1ccc(O[C@@H](CC(C)C)[C@H]2CCNC2)c(C)n1` (stereo in doubt; form 2), the Ki was 0.21 nM in [2] and 354 nM in [27].

`COc1ccc(O[C@@H](CC(C)C)[C@H]2CCNC2)c(C)n1` (stereo in doubt; form 1): the inhibition constant Ki in [2] worked out at 0.22 nM; in [27], 475 nM.

As for `COc1ccc(O[C@@H](CC(C)C)[C@@H]2CCNC2)c(C)n1`, the Ki was 0.84 nM in data set [2] and above 890 nM in data set [27].

For the compound `COc1ccc(O[C@H](CC(C)C)[C@H]2CCNC2)c(C)n1`, in data set [27], the inhibition constant Ki was above 890 nM.
